From patent US4725578A, “Compounds having therapeutic effect and the preparation thereof” (Tobishi Pharmaceutical Co., Ltd., priority 1986, dated 1988)

Experiments:
P-388 cells = assay: Antineoplastic action against implanted P-388 cells (ip-ip), survival T/C; assay type: in vivo, CDFl mice; settings: for T/C: P 388 (ip-ip), × 5; for T/C % (Treatment/Control %): Table 6, P388, intraperitoneal
Protocol: To the peritoneal cavity of each group of mice consisting of six CDFl mice per group, 10^6 /0.1 ml of P-388 cells or 10^5 /0.1 ml of L-1210 cells were implanted. […]
In the Table, the symbol T/C % means Treatment/Control %, that is the increase in life when the control is 100. […] This method is used in the screening of U.S. National Cancer Institute.
(§1) In Table 7, the symbol "i.P.-i.P." means that the tumor cells are implanted intraperitoneally and the compounds being tested are also administered intraperitoneally. The symbol "TR" is the therapeutic ratio obtained by dividing the dose which provides a maximum T/C value, by the dose which provides a minimum T/C value.

L-1210 cells = assay: Antineoplastic action against implanted L-1210 cells (ip-ip), survival T/C; assay type: in vivo, CDFl mice
Protocol: In this animal test, the antineoplastic action against the implanted tumor was examined in lower animals, in vivo, in respect of the compounds according to the present invention, by using CDFl mice.
To the peritoneal cavity of each group of mice consisting of six CDFl mice per group, 10^6 /0.1 ml of P-388 cells or 10^5 /0.1 ml of L-1210 cells were implanted. […] While to the control groups of CDFl mice, P-388 and L-1210 cells were implanted in the same manner and they were bred without administration of the compounds.
(§2) In the Table, the symbol T/C % means Treatment/Control %, that is the increase in life when the control is 100. The values are obtained by implanting tumor cells to groups of mice (or rats), administering the compound being tested in various amounts every 24 hours after the implantation of the tumor cells and then calculating the ratio, the median survival time of the group to which the compound has been administered to the survival of the control, multiplied by a factor of 100. This method is used in the screening of U.S. National Cancer Institute.
as §1

B-16 melanoma = assay: B16 melanoma (ip-ip), survival T/C; assay type: in vivo, mice
Protocol: as §2, with “Institute. […]” for “Institute.”
as §1

MM2 = MM2 (ip-ip), survival T/C; assay type: in vivo, mice
Protocol: as §2, with “Institute. […]” for “Institute.”
as §1
The term in Table 7, last column "3/6 60<", means that 3 mice out of 6 mice continue to live more than 60 days after the implantation of the tumor cells.

P 388 = P 388 (ip-iv), survival T/C; assay type: in vivo, mice
Protocol: as §2
(§3) In Table 9, "iv" and "sc" means that the administration of the compounds is carried out intravenously and the implantation of the tumor cells is carried out subcutaneously.

Yoshida sarcoma [1] = assay: Yoshida sarcoma (ip-ip), survival T/C; assay type: in vivo
Protocol: as §2

Yoshida sarcoma [2] = assay: Yoshida sarcoma (ip-iv), survival T/C; assay type: in vivo
Protocol: as §2, §3

Erlich carcinoma = Erlich carcinoma (sc-ip), inhibition; assay type: in vivo; settings: 8 mg/kg × 11, after 14 days
Lewis Lung Carcinoma = Lewis Lung Carcinoma (sc-ip), inhibition; assay type: in vivo; settings: 0.5 mg/kg × 25, after 17 days
MOPC-104E = MOPC-104E (ip-ip), survival T/C; assay type: in vivo
Protocol: as §2

C-1498 = C-1498 (ip-ip), survival T/C; assay type: in vivo
Protocol: as §2

CCCCCC(=O)Oc1ccc2cc1Oc1ccc(cc1)CC1C(=O)N(C)C(C2)C(=O)NC(C)C(=O)NC(C)C(=O)N(C)C(Cc2ccc(OC)cc2)C(=O)NC(C)C(=O)N1C (stereo not drawn) [Ex. 21, caproate of TPC-A]
T/C (P-388 cells; in combination: Mitomycin 0.5 mg/kg + Ex 21 0.5 mg/kg): 246.8% | T/C (P-388 cells; in combination: Mitomycin 0.5 mg/kg + Ex 21 5 mg/kg): 270.3% | T/C % (Treatment/Control %) (P-388 cells; dose 0.05 mg/kg): 133.6% | T/C % (Treatment/Control %) (P-388 cells; dose 0.5 mg/kg): 143.2% | T/C % (Treatment/Control %) (P-388 cells; dose 2 mg/kg): 151.6% | T/C % (Treatment/Control %) (P-388 cells; dose 10 mg/kg): 197.2% | P388 (i.P. - i.P.) T/C (%) (P-388 cells; Table 7, dose 0.01 mg/kg): 133.7% | P388 (i.P. - i.P.) T/C (%) (P-388 cells; Table 7, dose 0.1 mg/kg): 135.9% | P388 (i.P. - i.P.) T/C (%) (P-388 cells; Table 7, dose 2 mg/kg): 152.2% | L1210 (i.P. - i.P.) T/C (%) (L-1210 cells; Table 7, dose 0.5 mg/kg): 115.6% | L1210 (i.P. - i.P.) T/C (%) (L-1210 cells; Table 7, dose 2 mg/kg): 126.6% | L1210 (i.P. - i.P.) T/C (%) (L-1210 cells; Table 7, dose 10 mg/kg): 67.3% | effectiveness against B-16 melanoma (B-16 melanoma; (see Table 7)): effective | B16 (i.P. - i.P.) T/C (%) (B-16 melanoma; Table 7, dose 0.5 mg/kg): 143.5% | B16 (i.P. - i.P.) T/C (%) (B-16 melanoma; Table 7, dose 2 mg/kg): 152.0% | B16 (i.P. - i.P.) T/C (%) (B-16 melanoma; Table 7, dose 5 mg/kg): 165.5% | effectiveness against MM2 (MM2; (see Table 7)): effective | mice continuing to live more than 60 days after implantation (60<) (MM2; Table 7, MM2 (i.P. - i.P.), dose 2 mg/kg): 2/6 | MM2 (i.P. - i.P.) T/C (%) (MM2; Table 7, dose 0.5 mg/kg): 112.1% | MM2 (i.P. - i.P.) T/C (%) (MM2; Table 7, dose 2 mg/kg): 127.3% | MM2 (i.P. - i.P.) T/C (%) (MM2; Table 7, dose 10 mg/kg): 93.9% | T/C (P 388; 5.56 mg/kg × 9): 117.2% | T/C (P 388; 6.94 mg/kg × 9): 120.4% | T/C (Yoshida sarcoma [1]; 0.1 mg/kg × 5): 167.0% | T/C (Yoshida sarcoma [1]; 0.5 mg/kg × 5): 200.0% | T/C (Yoshida sarcoma [1]; 1 mg/kg × 5): 213.3% | animals living more than 30 days (30<) (Yoshida sarcoma [1]; 1 mg/kg × 5): 2/6 | T/C (Yoshida sarcoma [1]; 2.5 mg/kg × 5): 167.0% | T/C (Yoshida sarcoma [2]; 0.83 mg/kg × 9): 116.7% | T/C (Yoshida sarcoma [2]; 1.11 mg/kg × 9): 124.8% | Inhibition (Erlich carcinoma): 58.5% | Inhibition (Lewis Lung Carcinoma): 24.3% | T/C (MOPC-104E; 2 mg/kg × 9 times): 120.5% | T/C (MOPC-104E; 5 mg/kg × 9 times): 136.8% | T/C (C-1498; 2 mg/kg × 5 days): 110.2% | T/C (C-1498; 8 mg/kg × 5 days): 122.2%
